The record followed here is patent publication US8569267B2, “Tetracyclic tetrahydrofuran derivatives containing cyclic amine side chain” (Janssen Pharmaceutica, NV, priority 2005, dated 2013).

The target in experiment [1] is T1, human Dopamine D2L receptor (Homo sapiens, UniProt P14416).
T1 construct: expressed in transfected cells; host or cells: CHO cells
Put plainly: In vitro binding affinity for human D2L receptor ([3H]Spiperone binding). The note with it: human D2L receptor-transfected CHO cell membranes, read-out: D2L pIC50 (converted). In a few lines: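 Membranes from CHO cells transfected with the receptor were incubated with [3H]Spiperone (diluted to 2 nmol/L before addition) and compound for 30 min at 37° C. Buffer was Tris-HCl, pH 7.7, with NaCl, CaCl2, MgCl2 and KCl, and non-specific binding was defined with 10^−6 mol/l Butaclamol. Bound radioactivity was collected by filtration, counted by scintillation, and competition curves calculated as percent specific binding.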

For experiment [2], the target named is T2, NET (norepinephrine transporter) (Rattus norvegicus, UniProt Q63380).
T2 construct: Cortex from rat brain was collected and homogenised; from tissue; host or cells: rat brain cortex
T2 sequence (Q63380 1-617): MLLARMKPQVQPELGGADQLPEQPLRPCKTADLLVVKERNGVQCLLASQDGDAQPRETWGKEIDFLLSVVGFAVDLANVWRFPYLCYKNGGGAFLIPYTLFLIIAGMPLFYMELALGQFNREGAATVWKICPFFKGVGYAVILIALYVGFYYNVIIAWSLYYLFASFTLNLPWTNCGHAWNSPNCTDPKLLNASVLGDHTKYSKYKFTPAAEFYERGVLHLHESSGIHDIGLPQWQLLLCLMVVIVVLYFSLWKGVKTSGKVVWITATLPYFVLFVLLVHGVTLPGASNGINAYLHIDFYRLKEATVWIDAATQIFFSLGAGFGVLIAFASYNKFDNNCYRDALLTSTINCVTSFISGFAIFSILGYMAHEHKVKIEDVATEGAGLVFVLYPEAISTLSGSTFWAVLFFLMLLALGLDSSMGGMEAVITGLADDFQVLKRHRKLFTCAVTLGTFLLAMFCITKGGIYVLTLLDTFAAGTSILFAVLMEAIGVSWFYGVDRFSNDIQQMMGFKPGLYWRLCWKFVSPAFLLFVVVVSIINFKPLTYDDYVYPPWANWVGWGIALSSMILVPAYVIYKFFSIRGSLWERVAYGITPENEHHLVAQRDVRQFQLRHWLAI
Description: In vitro determination of NET reuptake inhibition ([3H]Nixosetine binding, rat brain cortex). Particulars: rat brain cortex, read-out: NET pIC50 (converted). In a few lines:
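Rat cortex homogenised in Tris 50 mM, NaCl 120 mM, KCl 5 mM, pH 7.4 was used for competition binding against [3H]nisoxetine. Bound radioligand was collected by filtration on GF/B filters and counted by scintillation. Percentage specific binding and competition curves were derived.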

In experiment [3] the target is T3, human cloned 5-HT2C receptor, expressed in CHO cells (Homo sapiens, UniProt P28335).
T3 construct: expressed in transfected cells; host or cells: CHO cells
T3 sequence (P28335 33-458): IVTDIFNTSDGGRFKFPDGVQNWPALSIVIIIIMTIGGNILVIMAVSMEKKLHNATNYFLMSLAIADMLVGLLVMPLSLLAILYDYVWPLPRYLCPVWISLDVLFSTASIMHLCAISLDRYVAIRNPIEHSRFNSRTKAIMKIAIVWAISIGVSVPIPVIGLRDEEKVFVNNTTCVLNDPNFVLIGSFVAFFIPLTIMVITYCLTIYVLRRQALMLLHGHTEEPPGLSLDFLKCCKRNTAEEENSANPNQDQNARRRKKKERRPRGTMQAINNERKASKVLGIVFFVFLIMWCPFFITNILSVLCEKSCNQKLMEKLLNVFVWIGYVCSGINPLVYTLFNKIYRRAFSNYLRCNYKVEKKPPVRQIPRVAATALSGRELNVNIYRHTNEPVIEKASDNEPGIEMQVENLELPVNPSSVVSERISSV
Put plainly: In vitro binding affinity for 5-HT2C receptor ([3H]mesulergine radioligand binding). Particulars: human cloned 5-HT2C receptor, read-out: 5-HT2C pIC50 (converted). The method in brief: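 Competition radioligand binding: varying test-compound concentrations incubated with receptor preparation and radioligand to binding equilibrium. Bound radioactivity separated from free and counted; affinity inferred from concentration-dependent inhibition of radioligand binding.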

Experiment [4] has as its target T4, human cloned 5-HT2A receptor, expressed in L929 cells (Homo sapiens, UniProt P28223).
T4 construct: expressed in transfected cells; host or cells: L929 cells
Put plainly: In vitro binding affinity for 5-HT2A receptor ([125I]R91150 radioligand binding). The note with it: human cloned 5-HT2A receptor in L929 cells, [125I]R91150; read-out: 5-HT2A pIC50 (converted). In a few lines:
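Competition radioligand binding to human cloned 5-HT2A receptor expressed in L929 cells, using [125I]R91150 with test compound at various concentrations. At equilibrium, receptor-bound radioactivity was separated from free and counted. Affinity reflects inhibition of radioligand binding.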

T1 sequence (P14416 whole entry): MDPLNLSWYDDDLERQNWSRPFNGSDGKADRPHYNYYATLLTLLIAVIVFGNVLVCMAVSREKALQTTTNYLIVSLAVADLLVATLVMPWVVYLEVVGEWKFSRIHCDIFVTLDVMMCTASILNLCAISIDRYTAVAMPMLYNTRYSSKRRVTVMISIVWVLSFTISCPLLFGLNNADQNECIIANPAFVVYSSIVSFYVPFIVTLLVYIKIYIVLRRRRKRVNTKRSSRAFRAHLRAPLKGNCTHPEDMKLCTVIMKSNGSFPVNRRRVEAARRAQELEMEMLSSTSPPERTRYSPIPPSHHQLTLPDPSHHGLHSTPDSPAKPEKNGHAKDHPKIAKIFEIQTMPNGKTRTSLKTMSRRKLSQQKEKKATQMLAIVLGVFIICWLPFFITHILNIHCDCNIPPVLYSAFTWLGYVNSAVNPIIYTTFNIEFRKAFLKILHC
T4 sequence (P28223 whole entry): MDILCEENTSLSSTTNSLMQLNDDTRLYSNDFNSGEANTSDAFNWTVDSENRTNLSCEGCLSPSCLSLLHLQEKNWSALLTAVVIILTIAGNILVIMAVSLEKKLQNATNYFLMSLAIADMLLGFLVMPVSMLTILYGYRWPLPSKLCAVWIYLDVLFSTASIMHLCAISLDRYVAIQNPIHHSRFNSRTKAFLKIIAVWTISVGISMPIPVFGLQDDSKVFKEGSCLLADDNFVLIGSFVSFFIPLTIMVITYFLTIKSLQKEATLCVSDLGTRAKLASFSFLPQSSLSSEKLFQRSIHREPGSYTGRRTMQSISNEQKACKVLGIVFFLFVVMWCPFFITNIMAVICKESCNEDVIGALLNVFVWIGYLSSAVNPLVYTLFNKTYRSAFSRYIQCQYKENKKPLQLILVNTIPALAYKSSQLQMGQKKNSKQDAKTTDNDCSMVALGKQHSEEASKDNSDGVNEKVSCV

Turning to `Fc1ccc2c(c1)C1OC(CN3CCN(c4cnccn4)CC3)CC1c1ccccc1C2` (stereo not drawn) [Compound 123], the IC50 in experiment [1] is 40.7 nM; in experiment [2], 2820 nM; in experiment [3], 7.24 nM; in experiment [4], 2.75 nM.
The matching figures for `CSc1nccc(N2CCN(CC3CC4c5ccccc5Cc5ccc(F)cc5C4O3)CC2)n1` (stereo not drawn) [Compound 124]: 47.9 nM, 2290 nM, 30.9 nM and 8.91 nM.
On to `Fc1ccc2c(c1)C1OC(CN3CCN(c4nc5ccccc5s4)CC3)CC1c1ccccc1C2` (stereo not drawn) [Compound 125], for which the IC50 in experiment [1] is 257 nM; in experiment [2], above 10000 nM; in experiment [3], 77.6 nM; in experiment [4], 17.4 nM.
The matching figures for `Fc1ccc2c(c1)C1OC(CN3CCN(c4nc5ccccc5o4)CC3)CC1c1ccccc1C2` (stereo not drawn) [Compound 126]: 214 nM, 9770 nM, 79.4 nM and 8.91 nM.
For `Fc1ccc2c(c1)C1OC(CN3CCN(c4nc5ccccc5[nH]4)CC3)CC1c1ccccc1C2` (stereo not drawn) [Compound 127] the same measures were 22.4 nM, 3800 nM, 4.17 nM and 0.251 nM.
Consider `OCCC1CN(C[C@H]2C[C@@H]3c4ccccc4Cc4ccc(F)cc4[C@@H]3O2)CCO1` (stereo partly drawn) [Compound 129], for which the IC50 in experiment [1] is 29.5 nM; in experiment [2], 417 nM; in experiment [3], 7.59 nM; in experiment [4], below 10 nM.
The matching figures for `COCCC1CN(C[C@H]2C[C@@H]3c4ccccc4Cc4ccc(F)cc4[C@@H]3O2)CCO1` (stereo partly drawn) [Compound 130]: 21.9 nM, 3550 nM, 5.37 nM and below 10 nM.
For `CN(C)CCC1CN(C[C@H]2C[C@@H]3c4ccccc4Cc4ccc(F)cc4[C@@H]3O2)CCO1` (stereo partly drawn) [Compound 132] the same measures were 389 nM, 5750 nM, 33.1 nM and 33.1 nM.
For `O=C(O)CC1CN(C[C@H]2C[C@@H]3c4ccccc4Cc4ccc(F)cc4[C@@H]3O2)CCO1` (stereo partly drawn) [Compound 134] the same measures were 41.7 nM, 42.7 nM, 1.38 nM and below 10 nM.
`CCOC(=O)CC1CN(C[C@H]2C[C@@H]3c4ccccc4Cc4ccc(F)cc4[C@@H]3O2)CCO1` (stereo partly drawn) [Compound 135]: the IC50 is 32.4 nM in experiment [1], 2450 nM in experiment [2], 16.6 nM in experiment [3] and 11.2 nM in experiment [4].
For `CN(C)C(=O)CC1CN(C[C@H]2C[C@@H]3c4ccccc4Cc4ccc(F)cc4[C@@H]3O2)CCO1` (stereo partly drawn) [Compound 136] the same measures were 24.5 nM, 70.8 nM, 3.31 nM and 1.58 nM.
In the case of `OCC1CCCN(C[C@H]2C[C@@H]3c4ccccc4Cc4ccc(F)cc4[C@@H]3O2)C1` (stereo partly drawn) [Compound 147, [2R-(2α, 3aα, 12bβ)]-(3′RS)-[1-(11-fluoro-3,3a,8,12b-tetrahydro-2H-1-oxa-dibenzo[e,h]azulen-2-ylmethyl)-piperidin-3-yl]-methanol.oxalate (1:1)], the IC50 was 4.79 nM in experiment [1], above 10000 nM in experiment [2], 1.26 nM in experiment [3] and 1.1 nM in experiment [4].
The matching figures for `OCCC1CCN(C[C@H]2C[C@@H]3c4ccccc4Cc4ccc(F)cc4[C@@H]3O2)CC1` [Compound 154]: 1.35 nM, above 10000 nM, 1.62 nM and 0.912 nM.
The matching figures for `OCCCC1CCN(CC2CC3c4ccccc4Cc4ccc(F)cc4C3O2)CC1` (stereo not drawn) [Compound 155, [2R-(2α, 3aα, 12bβ)]3-[1-(11-fluoro-3,3a,8,12b-tetrahydro-2H-1-oxa-dibenzo[e,h]-azulen-2-ylmethyl)-piperidin-4-yl]-propan-1-ol.oxalate (1:1)]: 1.48 nM, 1860 nM, 2.88 nM and 1.51 nM.
For `CCOC(=O)C=C1CCN(CC2CC3c4ccccc4Cc4ccc(F)cc4C3O2)CC1` (stereo not drawn) [Compound 165] the same measures were 38.9 nM, 3630 nM, 27.5 nM and 10.7 nM.
As to `N#CCC1CCN(CC2CC3c4ccccc4Cc4ccc(F)cc4C3O2)CC1` (stereo not drawn) [Compound 168], the IC50 in experiment [1] was 2.82 nM; in experiment [2], above 10000 nM; in experiment [3], 9.33 nM; in experiment [4], 3.89 nM.
For `N#CCCC1CCN(CC2CC3c4ccccc4Cc4ccc(F)cc4C3O2)CC1` (stereo not drawn) [Compound 170] the same measures were 1.51 nM, 4270 nM, 2.63 nM and 1.82 nM.
For `Fc1ccc2c(c1)C1OC(CN3CCCC(C4=NCCN4)C3)CC1c1ccccc1C2` (stereo not drawn) [Compound 171] the same measures were 282 nM, 1410 nM, 18.2 nM and 28.2 nM.
For `Fc1ccc2c(c1)C1OC(CN3CCC(N4CCCCC4)CC3)CC1c1ccccc1C2` (stereo not drawn) [Compound 172] the same measures were 43.7 nM, 6760 nM, 15.8 nM and 15.1 nM.
As to `CC(C)(C)NC(=O)C1CCN(CC2CC3c4ccccc4Cc4ccc(F)cc4C3O2)CC1` (stereo not drawn) [Compound 173], the IC50 is 13.2 nM in experiment [1], 6460 nM in experiment [2], 5.75 nM in experiment [3] and 0.724 nM in experiment [4].
For `N#CCCNC(=O)C1CCN(CC2CC3c4ccccc4Cc4ccc(F)cc4C3O2)CC1` (stereo not drawn) [Compound 174] the same measures were 15.1 nM, above 10000 nM, 2.19 nM and 1.62 nM.
The matching figures for `O=C(NCCCO)C1CCN(CC2CC3c4ccccc4Cc4ccc(F)cc4C3O2)CC1` (stereo not drawn) [Compound 175]: 18.2 nM, above 10000 nM, 1.74 nM and 0.759 nM.
For the compound `C=CCN(C)C(=O)C1CCN(CC2CC3c4ccccc4Cc4ccc(F)cc4C3O2)CC1` (stereo not drawn) [Compound 177], the IC50 is 11.7 nM in experiment [1], 9770 nM in experiment [2], 4.47 nM in experiment [3] and below 10 nM in experiment [4].
In the case of `CCCCCCCCCCNC(=O)C1CCN(C[C@H]2C[C@@H]3c4ccccc4Cc4ccc(F)cc4[C@@H]3O2)CC1` [Compound 178], the IC50 in experiment [1] was 50.1 nM; in experiment [2] it was above 10000 nM; in experiment [3], 9.33 nM; in experiment [4], below 10 nM.
For `O=C(NCC(O)CO)C1CCN(CC2CC3c4ccccc4Cc4ccc(F)cc4C3O2)CC1` (stereo not drawn) [Compound 179] the same measures were 38 nM, above 10000 nM, 3.8 nM and below 10 nM.
The matching figures for `O=C(NCCCn1ccnc1)C1CCN(CC2CC3c4ccccc4Cc4ccc(F)cc4C3O2)CC1` (stereo not drawn) [Compound 180]: 37.2 nM, above 10000 nM, 3.89 nM and 2.45 nM.
For `O=C(NCCN1CCOCC1)C1CCN(CC2CC3c4ccccc4Cc4ccc(F)cc4C3O2)CC1` (stereo not drawn) [Compound 181] the same measures were 57.5 nM, above 10000 nM, 7.59 nM and 4.79 nM.
For the compound `CSc1ccc(NC(=O)C2CCN(CC3CC4c5ccccc5Cc5ccc(F)cc5C4O3)CC2)cc1` (stereo not drawn) [Compound 183], the IC50 was 25.7 nM in experiment [1], above 10000 nM in experiment [2], 1.15 nM in experiment [3] and below 10 nM in experiment [4].
The matching figures for `COc1cc(OC)c(CNC(=O)C2CCN(CC3CC4c5ccccc5Cc5ccc(F)cc5C4O3)CC2)c(OC)c1` (stereo not drawn) [Compound 186]: 7.08 nM, 3550 nM, 2.34 nM and 2.4 nM.
As to `O=C(NC1CC1)C1CCN(CC2CC3c4ccccc4Cc4ccc(F)cc4C3O2)CC1` (stereo not drawn) [Compound 187], the IC50 is 18.2 nM in experiment [1], above 10000 nM in experiment [2], 1.15 nM in experiment [3] and 0.427 nM in experiment [4].
